Reference: patent US20060069132A1, “Azolecarboxamide herbicides” (priority 2004, published 2006)

Legend:
[1] = tested on: Surinam grass; test: Test B pre-/postemergence herbicide test; type: in vivo, Urochloa decumbens
Method in brief: (§1)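 Herbicidal effect was judged by eye on a 0–100 scale after plants stood 13 to 15 days in the greenhouse following pre- or postemergence treatment with surfactant-containing formulations.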

[2] = tested on: cocklebur; test: Test B pre-/postemergence herbicide test; type: in vivo, Xanthium strumarium
Method in brief: (§2)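 Evaluation is visual, comparing treated with control plants on a scale where 0 means no effect and 100 means full control. Treatments were preemergence, or postemergence on seedlings 2–18 cm tall, and held 13–15 days in the greenhouse.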

[3] = tested on: corn; test: Test B pre-/postemergence herbicide test; type: in vivo, Zea mays
Method in brief: as §1

[4] = tested on: giant foxtail; test: Test B pre-/postemergence herbicide test; type: in vivo, Setaria faberi
Method in brief: as §1

[5] = tested on: lambsquarters; test: Test B pre-/postemergence herbicide test; type: in vivo, Chenopodium album
Method in brief: as §1

[6] = tested on: morningglory; test: Test B pre-/postemergence herbicide test; type: in vivo, Ipomoea coccinea
Method in brief: as §2

[7] = tested on: pigweed; test: Test B pre-/postemergence herbicide test; type: in vivo, Amaranthus retroflexus
Method in brief: as §1

[8] = tested on: velvetleaf; test: Test B pre-/postemergence herbicide test; type: in vivo, Abutilon theophrasti
Method in brief: as §1

[9] = tested on: blackgrass; test: Test B postemergence herbicide test; type: in vivo, Alopecurus myosuroides
Method in brief: (§3)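 Each value is a visual 0–100 response rating taken against controls 13 to 15 days after treatment in the greenhouse. Plants received formulated chemical postemergence at the 1- to 4-leaf stage or, in flooded paddy, at the 2-leaf stage.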

[10] = tested on: wheat; test: Test B postemergence herbicide test; type: in vivo, Triticum aestivum; design: key to Wheat plant response rating: 0 = no effect, 100 = complete control
Method in brief: (§4)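 Postemergence plants were sprayed with formulated test chemicals at 2 to 18 cm height (1- to 4-leaf stage); paddy species were grown to the 2-leaf stage. After 13 to 15 days in a greenhouse, injury was rated visually against untreated controls on a 0–100 scale (0 = no effect, 100 = complete control).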

[11] = tested on: wild oat; test: Test B postemergence herbicide test; type: in vivo, Avena fatua
Method in brief: as §4

[12] = tested on: rice; test: Test B flooded paddy test; type: in vivo, Oryza sativa; details: 1000 g ai/ha, scale 0 to 100 (0 no effect, 100 complete control)
Method in brief: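 Treated at 2-leaf (paddy) or 1–4-leaf, 2–18 cm (postemergence); greenhouse 13–15 d; visual score vs control, 0 none to 100 complete control; dash = not tested.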

[13] = tested on: small flower umbrella sedge; test: Test B flooded paddy test; type: in vivo, Cyperus difformis; details: 1000 g ai/ha, scale 0 to 100 (0 no effect, 100 complete control)
Method in brief: as §3

[14] = tested on: ducksalad; test: Test B flooded paddy test; type: in vivo, Heteranthera limosa; details: 1000 g ai/ha, scale 0 to 100 (0 no effect, 100 complete control)
Method in brief: as §3

[15] = tested on: barnyardgrass; test: Test B flooded paddy test; type: in vivo, Echinochloa crus-galli; details: 1000 g ai/ha, scale 0 to 100 (0 no effect, 100 complete control)
Method in brief: as §3

[16] = 125 g ai/ha; 0 = no effect, 100 = complete control; preemergence
[17] = 125 g ai/ha; visual rating, scale 0 (no effect) to 100 (complete control); postemergence
[18] = 500 g ai/ha; visual rating, 0 = no effect, 100 = complete control; preemergence
[19] = postemergence, 500 g ai/ha; scale 0 to 100, 0 is no effect, 100 is complete control
[20] = 500 g ai/ha; visual rating 0-100, 0 no effect, 100 complete control; preemergence
[21] = postemergence, 125 g ai/ha; visual rating, scale 0 (no effect) to 100 (complete control)
[22] = postemergence, 500 g ai/ha; visual rating, scale 0 (no effect) to 100 (complete control)
[23] = preemergence, 125 g ai/ha; 0 to 100 scale, 0 is no effect, 100 is complete control
[24] = 125 g ai/ha; 0 is no effect, 100 is complete control; preemergence

## CCn1nc(C(C)(C)C)cc1C(=O)Nc1cncc(C(=O)N2CC=CC2)n1 [Compound 290]
[1]; [16]
  Surinam Grass plant response rating (0 to 100 scale): 0
[1]; [17]
  Surinam Grass plant response rating: 0
[1]; [18]
  Plant response rating, Surinam Grass: 10
[1]; [19]
  Surinam Grass plant response rating: 30
[2]; [16]
  Cocklebur plant response rating (0 to 100 scale): 0
[2]; [17]
  Cocklebur plant response rating: 0
[2]; [18]
  Plant response rating, Cocklebur: 0
[2]; [19]
  Cocklebur plant response rating: 10
[3]; [16]
  Corn plant response rating (0 to 100 scale): 0
[3]; [17]
  Corn plant response rating: 0
[3]; [18]
  Plant response rating, Corn: 0
[3]; [19]
  Corn plant response rating: 10
[4]; [16]
  Foxtail, Giant plant response rating (0 to 100 scale): 10
[4]; [17]
  Foxtail, Giant plant response rating: 20
[4]; [18]
  Plant response rating, Foxtail, Giant: 80
[4]; [19]
  Foxtail, Giant plant response rating: 60
[5]; [16]
  Lambsquarters plant response rating (0 to 100 scale): 100
[5]; [17]
  Lambsquarters plant response rating: 10
[5]; [18]
  Plant response rating, Lambsquarters: 100
[5]; [19]
  Lambsquarters plant response rating: 20
[6]; [16]
  Morningglory plant response rating (0 to 100 scale): 0
[6]; [17]
  Morningglory plant response rating: 0
[6]; [18]
  Plant response rating, Morningglory: 0
[6]; [19]
  Morningglory plant response rating: 0
[7]; [16]
  Pigweed plant response rating (0 to 100 scale): 0
[7]; [17]
  Pigweed plant response rating: 10
[7]; [18]
  Plant response rating, Pigweed: 100
[7]; [19]
  Pigweed plant response rating: 10
[8]; [17]
  Velvetleaf plant response rating: 0
[8]; [18]
  Plant response rating, Velvetleaf: 0
[8]; [19]
  Velvetleaf plant response rating: 10
[9]; [17]
  Blackgrass plant response rating: 20
[9]; [19]
  Blackgrass plant response rating: 30
[10]; [17]
  Wheat plant response rating: 20
[10]; [19]
  Wheat plant response rating: 30
[11]; [17]
  Oat, Wild plant response rating: 20
[11]; [19]
  Oat, Wild plant response rating: 40
[12]
  Rice plant response rating: 60
[13]
  Sedge, Umbrella plant response rating: 70
[14]
  Ducksalad plant response rating: 70
[15]
  Barnyardgrass plant response rating: 70

## CCOc1cccc(NC(=O)c2cc(C(C)(C)C)nn2CC)c1 [Compound 136]
[1]; [20]
  Plant response rating, Surinam Grass: 90
[1]; [21]
  Surinam Grass plant response rating: 20
[1]; [22]
  Surinam Grass plant response rating: 70
[1]; [23]
  Plant response rating, Surinam Grass: 40
[2]; [20]
  Plant response rating, Cocklebur: 10
[2]; [21]
  Cocklebur plant response rating: 100
[2]; [22]
  Cocklebur plant response rating: 100
[2]; [23]
  Plant response rating, Cocklebur: 0
[3]; [20]
  Plant response rating, Corn: 30
[3]; [21]
  Corn plant response rating: 10
[3]; [22]
  Corn plant response rating: 30
[3]; [23]
  Plant response rating, Corn: 10
[4]; [20]
  Plant response rating, Foxtail, Giant: 100
[4]; [21]
  Foxtail, Giant plant response rating: 10
[4]; [22]
  Foxtail, Giant plant response rating: 10
[4]; [23]
  Plant response rating, Foxtail, Giant: 80
[5]; [20]
  Plant response rating, Lambsquarters: 100
[5]; [21]
  Lambsquarters plant response rating: 100
[5]; [22]
  Lambsquarters plant response rating: 100
[5]; [23]
  Plant response rating, Lambsquarters: 100
[6]; [20]
  Plant response rating, Morningglory: 70
[6]; [21]
  Morningglory plant response rating: 20
[6]; [22]
  Morningglory plant response rating: 100
[6]; [23]
  Plant response rating, Morningglory: 50
[7]; [20]
  Plant response rating, Pigweed: 100
[7]; [21]
  Pigweed plant response rating: 60
[7]; [22]
  Pigweed plant response rating: 90
[7]; [23]
  Plant response rating, Pigweed: 100
[8]; [20]
  Plant response rating, Velvetleaf: 100
[8]; [21]
  Velvetleaf plant response rating: 60
[8]; [22]
  Velvetleaf plant response rating: 70
[8]; [23]
  Plant response rating, Velvetleaf: 50
[9]; [21]
  Blackgrass plant response rating: 30
[9]; [22]
  Blackgrass plant response rating: 60
[10]; [21]
  Wheat plant response rating: 20
[10]; [22]
  Wheat plant response rating: 40
[11]; [21]
  Oat, Wild plant response rating: 50
[11]; [22]
  Oat, Wild plant response rating: 60
[12]; visual rating, 13 to 15 days
  Rice plant response rating: 30
[13]; visual rating, 13 to 15 days
  Sedge, Umbrella plant response rating: 90
[14]; visual rating, 13 to 15 days
  Ducksalad plant response rating: 90
[15]; visual rating, 13 to 15 days
  Barnyardgrass plant response rating: 60

## CCNC(=O)c1cccc(NC(=O)c2cc(C(C)(C)C)nn2CC)n1 [Compound 144]
[1]; [20]
  Plant response rating, Surinam Grass: 100
[1]; [21]
  Surinam Grass plant response rating: 60
[1]; [22]
  Surinam Grass plant response rating: 90
[1]; [23]
  Plant response rating, Surinam Grass: 60
[2]; [20]
  Plant response rating, Cocklebur: 20
[2]; [21]
  Cocklebur plant response rating: 30
[2]; [22]
  Cocklebur plant response rating: 100
[2]; [23]
  Plant response rating, Cocklebur: 10
[3]; [20]
  Plant response rating, Corn: 10
[3]; [21]
  Corn plant response rating: 20
[3]; [22]
  Corn plant response rating: 30
[3]; [23]
  Plant response rating, Corn: 10
[4]; [20]
  Plant response rating, Foxtail, Giant: 100
[4]; [21]
  Foxtail, Giant plant response rating: 40
[4]; [22]
  Foxtail, Giant plant response rating: 90
[4]; [23]
  Plant response rating, Foxtail, Giant: 100
[5]; [20]
  Plant response rating, Lambsquarters: 100
[5]; [21]
  Lambsquarters plant response rating: 90
[5]; [22]
  Lambsquarters plant response rating: 90
[5]; [23]
  Plant response rating, Lambsquarters: 100
[6]; [20]
  Plant response rating, Morningglory: 100
[6]; [21]
  Morningglory plant response rating: 50
[6]; [22]
  Morningglory plant response rating: 80
[6]; [23]
  Plant response rating, Morningglory: 100
[7]; [20]
  Plant response rating, Pigweed: 100
[7]; [21]
  Pigweed plant response rating: 100
[7]; [22]
  Pigweed plant response rating: 100
[7]; [23]
  Plant response rating, Pigweed: 100
[8]; [20]
  Plant response rating, Velvetleaf: 100
[8]; [21]
  Velvetleaf plant response rating: 80
[8]; [22]
  Velvetleaf plant response rating: 100
[8]; [23]
  Plant response rating, Velvetleaf: 100
[9]; [21]
  Blackgrass plant response rating: 20
[9]; [22]
  Blackgrass plant response rating: 60
[10]; [22]
  Wheat plant response rating: 30
[11]; [21]
  Oat, Wild plant response rating: 20
[11]; [22]
  Oat, Wild plant response rating: 50
[12]; visual rating, 13 to 15 days
  Rice plant response rating: 70
[13]; visual rating, 13 to 15 days
  Sedge, Umbrella plant response rating: 90
[14]; visual rating, 13 to 15 days
  Ducksalad plant response rating: 90
[15]; visual rating, 13 to 15 days
  Barnyardgrass plant response rating: 80

## CCn1nc(C(C)(C)C)cc1C(=O)Nc1cc(OC(F)(F)F)ccc1F [Compound 338]
[1]; [24]
  Plant response rating (0 to 100 scale), Surinam Grass: 20
[1]; [17]
  Surinam Grass plant response rating: 20
[1]; [18]
  Plant response rating, Surinam Grass: 60
[1]; [19]
  Surinam Grass plant response rating: 40
[2]; [24]
  Plant response rating (0 to 100 scale), Cocklebur: 0
[2]; [17]
  Cocklebur plant response rating: 10
[2]; [18]
  Plant response rating, Cocklebur: 0
[2]; [19]
  Cocklebur plant response rating: 10
[3]; [24]
  Plant response rating (0 to 100 scale), Corn: 10
[3]; [17]
  Corn plant response rating: 10
[3]; [18]
  Plant response rating, Corn: 10
[3]; [19]
  Corn plant response rating: 20
[4]; [24]
  Plant response rating (0 to 100 scale), Foxtail, Giant: 30
[4]; [17]
  Foxtail, Giant plant response rating: 20
[4]; [18]
  Plant response rating, Foxtail, Giant: 100
[4]; [19]
  Foxtail, Giant plant response rating: 30
[5]; [24]
  Plant response rating (0 to 100 scale), Lambsquarters: 60
[5]; [17]
  Lambsquarters plant response rating: 10
[5]; [18]
  Plant response rating, Lambsquarters: 100
[5]; [19]
  Lambsquarters plant response rating: 50
[6]; [24]
  Plant response rating (0 to 100 scale), Morningglory: 0
[6]; [17]
  Morningglory plant response rating: 60
[6]; [18]
  Plant response rating, Morningglory: 10
[6]; [19]
  Morningglory plant response rating: 100
[7]; [24]
  Plant response rating (0 to 100 scale), Pigweed: 70
[7]; [17]
  Pigweed plant response rating: 60
[7]; [18]
  Plant response rating, Pigweed: 100
[7]; [19]
  Pigweed plant response rating: 80
[8]; [17]
  Velvetleaf plant response rating: 20
[8]; [19]
  Velvetleaf plant response rating: 50
[9]; [17]
  Blackgrass plant response rating: 20
[9]; [19]
  Blackgrass plant response rating: 40
[10]; [17]
  Wheat plant response rating: 0
[10]; [19]
  Wheat plant response rating: 10
[11]; [17]
  Oat, Wild plant response rating: 0
[11]; [19]
  Oat, Wild plant response rating: 40
[12]
  Rice plant response rating: 30
[13]
  Sedge, Umbrella plant response rating: 80
[14]
  Ducksalad plant response rating: 60
[15]
  Barnyardgrass plant response rating: 40
